Measurements: patent US20100209959A1, “TUMOUR-CELL-FIXING CELLS” (UNIVERSITE PIERRE ET MARIE CURIE-PARIS VI, priority 2007, published 2010)

How the values were obtained:
HL60 cells [1] = assay: Proliferation of HL60 cells, free or fixed to hospicells, after exposure to AraC or DNR; assay type: cell-based, human; conditions: for living HL60 cells fixed to the hospicells during treatment / living free HL60 cells during treatment: 5 days' treatment; for living HL60 cells fixed to the hospicells during treatment / living HL60 cells on hospicells after the treatment is stopped: HL60 fixed to hospicells; for living HL60 cells on hospicells after the treatment is stopped / growth of free HL60 cells after the treatment is stopped: drug removed, fresh medium
Description: (§1) HL60 cells cultured with hospicells in RPMI medium were treated for 5 days with either aracytin (AraC) or daunorubicin (DNR).
After 5 days' treatment, the drug was removed and the cells were cultured again in fresh medium.
The number of living HL60 cells was measured throughout the experiment using the image analysis system.

hospicells = assay: Toxicity of the drug for hospicells in HL60/hospicell co-culture; assay type: cell-based
Description: as §1
This effect of “regrowth” of the cells is greater with aracytin than with daunorubicin, the difference being linked to the toxicity of daunorubicin for the hospicells.

OVCAR3 cells = assay: Chemoresistance of OVCAR3 cells co-cultured with hospicells (SRB assay); assay type: cell-based; conditions: verapamil 1.4 μM added, in the presence of carboplatin and paclitaxel
Description: Briefly, the hospicells were cultivated to 60% confluence. 2·10^4 OVCAR3 cells expressing GFP were then co-cultivated with the hospicells for 24 hours before being brought into contact with a chemotherapeutic agent (carboplatin 22.2 μM and paclitaxel 1.4 μM). The chemotherapeutic effect was determined with the aid of a quantitative colorimetric assay with sulforhodamine B (SRB) as described by Skehan et al. (1990) J. Natl. Cancer Inst. 82:1107-1112. The pink colour of the SRB was quantified by measuring the absorbance at 540 nm. For each condition, the mean cell density and the standard deviation were calculated from the data obtained for 6 wells. The experiments were repeated 3 times.
The role of the MDR proteins in the chemoresistance imparted by the hospicells was confirmed by repeating the above co-culture experiments of hospicells and OVCAR3 cells in the presence of carboplatin and paclitaxel, and adding to the culture medium verapamil (1.4 μM), an MDR1 protein inhibitor.

HL60 cells [2] = assay: Adhesion of HL60 cells to hospicells; assay type: cell-based, human; conditions: HL60 incubated beforehand with agent; tumour cells/hospicells 5/1; 24 hours at 37° C.
Description: HL60 cells were incubated in RPMI medium under […]: • HL60 cells alone (control) • HL60 cells+anti-arrestin antibody (control antibody) • HL60 cells+RGD (Arg-Gly-Asp, integrin consensus sequence, which partially prevents integrin dependent adhesion) • HL60 cells+anti-CD11a antibody • HL60 cells+anti-CD49d antibody • HL60 cells+anti-CD11a antibody+anti-CD49d antibody • HL60 cells+anti-CD11a antibody+anti-CD49d antibody+RGD
For each condition, HL60 cells were deposited separately and in identical amounts in 6 different wells containing complete RPMI medium and fixing cells which had adhered to the support. The ratio between tumour cells and hospicells was 5/1. After incubation for 24 hours at 37° C., the HL60 cells that had not adhered were recovered and counted. The percentage of HL60 cells adhering to the hospicells was then calculated for each condition.

COc1cccc2c1C(=O)c1c(O)c3c(c(O)c1C2=O)C[C@@](O)(C(C)=O)C[C@@H]3O[C@H]1C[C@H](N)[C@H](O)[C@H](C)O1 [DNR, daunorubicin]
living HL60 cells fixed to the hospicells during treatment (HL60 cells [1]): no longer detectable
living HL60 cells on hospicells after the treatment is stopped (HL60 cells [1]): living HL60 cells are identifiable
living free HL60 cells during treatment (HL60 cells [1]): die
growth of free HL60 cells after the treatment is stopped (HL60 cells [1]): do not grow
toxicity for the hospicells (hospicells): toxicity

Nc1ccn([C@@H]2O[C@H](CO)[C@@H](O)[C@@H]2O)c(=O)n1 [AraC, aracytin]
living HL60 cells fixed to the hospicells during treatment (HL60 cells [1]): no longer detectable
living HL60 cells on hospicells after the treatment is stopped (HL60 cells [1]): living HL60 cells are identifiable
effect of regrowth of the HL60 cells on hospicells, aracytin compared with daunorubicin (HL60 cells [1]; after the treatment is stopped): greater
living free HL60 cells during treatment (HL60 cells [1]): die
growth of free HL60 cells after the treatment is stopped (HL60 cells [1]): do not grow

COc1ccc(CCN(C)CCCC(C#N)(c2ccc(OC)c(OC)c2)C(C)C)cc1OC (stereo not drawn) [verapamil]
chemoresistance imparted by the hospicells to the OVCAR3 cells (OVCAR3 cells): dramatically reduces

Arg-Gly-Asp [RGD]
adhesion of the HL60 cells to the hospicells (HL60 cells [2]): partially blocks
